Drawing on BindingDB's records for doi:10.1016/j.bmc.2008.09.058 (Yale University, 2009), this text covers IC50 for two compounds.

What is called IC50 is the concentration at which inhibition is half-maximal. A lower IC50 goes with greater potency.

Molecules are shown by their SMILES. Square brackets hold non-standard residues; d marks the D form. Peptide text beside a SMILES is read from it. * marks the point of attachment. 4Abz = Nc1ccc(C(=O)O)cc1; NHBn = c1ccc(CN*)cc1

The assay deals with RAC-alpha serine/threonine-protein kinase (Homo sapiens, UniProt P31749). The assay can be described thus: AKT IMAP Fluorescence Polarization Assay. The settings on record: pH 7.2; 23 °C. From the text: A bead-based FP assay methodology, termed IMAP, has been developed for the serine/threonine kinase, AKT that allows for direct measurement of product formation. The assay design utilizes a fluoresceinated peptide substrate that, when phosphorylated by the kinase, binds to nanoparticles derivatized with trivalent metal cations through a metal-phospholigand interaction. The result of this bound fluoresceinated phosphorylated product is an increase in polarization signal caused by a decrease in the molecular mobility of the bound product. Reported values are an average of three independent binding curves utilizing an IMAP Akt Assay Kit (Molecular Devices). Reactions were conducted in wells with fluoresceinated peptide, ATP, and Akt1, and inhibitor in reaction buffer. The reactions were equilibrated for 1 h at room temperature then data points were collected and analyzed.
Chain of RAC-alpha serine/threonine-protein kinase (P31749 whole entry): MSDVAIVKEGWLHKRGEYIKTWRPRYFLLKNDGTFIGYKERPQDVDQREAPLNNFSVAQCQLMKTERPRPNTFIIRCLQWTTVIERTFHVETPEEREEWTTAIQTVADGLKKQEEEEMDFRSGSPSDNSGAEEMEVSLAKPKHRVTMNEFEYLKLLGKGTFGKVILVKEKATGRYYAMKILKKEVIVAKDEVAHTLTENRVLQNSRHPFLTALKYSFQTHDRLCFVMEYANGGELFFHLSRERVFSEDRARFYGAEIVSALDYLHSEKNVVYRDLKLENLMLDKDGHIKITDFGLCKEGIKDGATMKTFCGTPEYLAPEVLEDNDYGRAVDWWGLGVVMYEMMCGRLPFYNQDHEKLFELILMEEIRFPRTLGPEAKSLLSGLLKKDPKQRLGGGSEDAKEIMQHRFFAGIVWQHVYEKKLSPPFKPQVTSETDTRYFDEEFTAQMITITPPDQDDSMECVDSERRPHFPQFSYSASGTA

Take `CC(=O)NC(CCCN=C(N)N)C(=O)Nc1ccc(C(=O)NC(C(=O)NC(Cc2ccccc2)C(=O)NCc2ccccc2)C(C)C)cc1` (configuration not stated) [Peptidomimetic, 9] (Ac-R[4Abz]VF-NHBn; configuration not given here): the IC50 stood at 119 µM.

Regarding `CC(=O)NCC(=O)NC(CCCN=C(N)N)C(=O)N1CCCC1C(=O)NC(CCCN=C(N)N)C(=O)Nc1ccc(C(=O)NC(C(=O)NC(Cc2ccccc2)C(=O)NCc2ccccc2)C(C)C)cc1` (configuration not stated) [Peptidomimetic, 2] (Ac-GRPR[4Abz]VF-NHBn; configuration not given here), 28 µM corresponded to half-maximal inhibition (IC50).
